T/C data for 21 compounds are collected here from PubChem BioAssay AID192 (DTP/NCI, 2004).

The subject of the experiment is BDF1 mice, B16 melanoma ip, median survival T/C. The experiment in a line: NCI In Vivo Anticancer Drug Screen. Data for tumor model B16 Melanoma (intraperitoneal) in B6D2F1 (BDF1) mice. To be noted: endpoint: median survival time, higher = longer survival. In short, it runs like this: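 Survival or tumor size is measured after treatment of tumor-bearing mice and normalised to the vehicle-treated control group.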

Where [1] appears, read: dose: 1.0 mg/kg/injection, schedule: Q01DX009 (ip), vehicle: saline.
The mark [2] stands for this setting: dose: 1.56 mg/kg/injection, schedule: Q01DX009 (ip), vehicle: saline.
[3] abbreviates: dose: 2.0 mg/kg/injection, schedule: Q01DX009 (ip), vehicle: saline.
[4] abbreviates: dose: 3.12 mg/kg/injection, schedule: Q01DX009 (ip), vehicle: saline.
[5] abbreviates: dose: 4.0 mg/kg/injection, schedule: Q01DX009 (ip), vehicle: saline.
[6] abbreviates: dose: 12.5 mg/kg/injection, schedule: Q01DX009 (ip), vehicle: Klucel (hydroxypropylcellulose) (HPC).
[7] abbreviates: dose: 25.0 mg/kg/injection, schedule: Q01DX009 (ip), vehicle: Klucel (hydroxypropylcellulose) (HPC).
Setting [8] is: dose: 50.0 mg/kg/injection, schedule: Q01DX009 (ip), vehicle: Klucel (hydroxypropylcellulose) (HPC).
Setting [9] is: dose: 100.0 mg/kg/injection, schedule: Q01DX009 (ip), vehicle: Klucel (hydroxypropylcellulose) (HPC).
The mark [10] stands for this setting: dose: 200.0 mg/kg/injection, schedule: Q01DX009 (ip), vehicle: Klucel (hydroxypropylcellulose) (HPC).
Setting [11] is: dose: 400.0 mg/kg/injection, schedule: Q01DX009 (ip), vehicle: Klucel (hydroxypropylcellulose) (HPC).
The mark [12] stands for this setting: dose: 5.0 mg/kg/injection, schedule: Q01DX009 (ip), vehicle: saline.
The mark [13] stands for this setting: dose: 10.0 mg/kg/injection, schedule: Q01DX009 (ip), vehicle: saline.
Where [14] appears, read: dose: 25.0 mg/kg/injection, schedule: Q01DX009 (ip), vehicle: saline with Tween-80.
[15] abbreviates: dose: 50.0 mg/kg/injection, schedule: Q01DX009 (ip), vehicle: saline with Tween-80.
[16] abbreviates: dose: 100.0 mg/kg/injection, schedule: Q01DX009 (ip), vehicle: saline with Tween-80.
The mark [17] stands for this setting: dose: 100.0 mg/kg/injection, schedule: Q04DX003 (ip), vehicle: saline.
Where [18] appears, read: dose: 6.25 mg/kg/injection, schedule: Q01DX009 (ip), vehicle: saline.
[19] abbreviates: dose: 12.5 mg/kg/injection, schedule: Q01DX009 (ip), vehicle: saline.
Setting [20] is: dose: 25.0 mg/kg/injection, schedule: Q01DX009 (ip), vehicle: saline.
The mark [21] stands for this setting: dose: 50.0 mg/kg/injection, schedule: Q01DX009 (ip), vehicle: saline.
Setting [22] is: dose: 6.25 mg/kg/injection, schedule: Q01DX009 (ip), vehicle: saline with Tween-80.
Setting [23] is: dose: 12.5 mg/kg/injection, schedule: Q01DX009 (ip), vehicle: saline with Tween-80.
Where [24] appears, read: dose: 100.0 mg/kg/injection, schedule: Q01DX009 (ip), vehicle: saline.

Where “and” joins values, the source holds several entries; their conditions need not be identical. Equal entries are not always repeated. Inconclusive results and toxic doses are left out. Square brackets hold non-standard residues; d marks the D form. Peptide text beside a SMILES is read from it. * marks the point of attachment. Cbz = O=C(OCc1ccccc1)*; Nva = CCC[CH](N)C(=O)O

`CC[n+]1c(-c2ccccc2)c2cc(N)ccc2c2ccc(N)cc21`: the T/C is 98 % of control (dose: 0.75 mg/kg/injection, schedule: Q01DX009 (ip), vehicle: water); 95 % of control under setting [1]; 106 % of control (dose: 1.5 mg/kg/injection, schedule: Q01DX009 (ip), vehicle: water); 105 % of control under setting [2]; 95 % of control under setting [3]; 108 % of control (dose: 3.0 mg/kg/injection, schedule: Q01DX009 (ip), vehicle: water). Besides, the T/C reads like this: under setting [4], 158 % of control; (dose: 4.0 mg/kg/injection, schedule: Q01DX009 (ip), vehicle: saline sonified) 120 % of control; under setting [5], 108 % of control; (dose: 6.0 mg/kg/injection, schedule: Q01DX009 (ip), vehicle: water) 112 % of control; (dose: 8.0 mg/kg/injection, schedule: Q01DX009 (ip), vehicle: saline sonified) 115 % of control; (dose: 8.0 mg/kg/injection, schedule: Q01DX009 (ip), vehicle: saline) 108 % of control.

Take `COc1cccc(CNc2cccc(Cl)c2Cl)c1OC`: the T/C under setting [6] was 99 % of control; the T/C under setting [7] was 105 % of control; the T/C under setting [8] was 101 % of control; the T/C under setting [9] is 101 % of control; the T/C under setting [10] was 95 % of control; the T/C under setting [11] is 102 % of control.

With `c1ccc2c[n+](CCCCCCCCCC[n+]3ccc4ccccc4c3)ccc2c1`, the T/C was 88 % of control (dose: 2.5 mg/kg/injection, schedule: Q01DX009 (ip), vehicle: saline); 97 % of control under setting [12]; 97 % of control under setting [13]; 92 % of control (dose: 10.0 mg/kg/injection, schedule: Q04DX003 (ip), vehicle: saline).

Take `Cc1ccc(CS)cc1`: the T/C by setting is: under setting [9], 112 % of control; under setting [10], 118 % of control.

Turning to `ClCC[N-]CC[N-]CCCl.ClCC[N-]CC[N-]CCCl.[O-][Cl+3]([O-])([O-])O.[Zn+2]`, the T/C runs as follows: (dose: 2.5 mg/kg/injection, schedule: Q01DX009 (ip), vehicle: Klucel (hydroxypropylcellulose) (HPC)) 106 % of control; (dose: 5.0 mg/kg/injection, schedule: Q01DX009 (ip), vehicle: Klucel (hydroxypropylcellulose) (HPC)) 92 % of control; (dose: 10.0 mg/kg/injection, schedule: Q01DX009 (ip), vehicle: Klucel (hydroxypropylcellulose) (HPC)) 101 % of control; (dose: 20.0 mg/kg/injection, schedule: Q01DX009 (ip), vehicle: Klucel (hydroxypropylcellulose) (HPC)) 104 % of control.

`CCOC(=O)C(C)(Br)C(=O)OCC`: the T/C is, setting by setting: under setting [14], 110 % of control; (dose: 25.0 mg/kg/injection, schedule: Q04DX003 (ip), vehicle: saline) 115 % of control; under setting [15], 102 % of control; (dose: 50.0 mg/kg/injection, schedule: Q04DX003 (ip), vehicle: saline) 118 % of control; under setting [16], 95 % of control; under setting [17], 118 % of control.

With `CC(CN1c2ccccc2Sc2cccnc21)N(C)C` (configuration not stated), the T/C is 97 % of control under setting [4]; 107 % of control under setting [18]; 112 % of control under setting [19]; 109 % of control under setting [20]; 100 % of control under setting [21].

In the case of `CC(=O)C12OC1(C)CC1C3CC=C4CC(O)CCC4(C)C3CCC12C` (configuration not stated), the T/C reads like this: under setting [9], 107 % of control; under setting [10], 95 % of control; under setting [11], 105 % of control.

Regarding `CC(Br)C(=O)NC(Cc1ccccc1)C(=O)O` (configuration not stated), the T/C under setting [15] is 94 % of control and the T/C under setting [16] was 91 % of control.

With `CC1(C)N=C(N)N=C(N)N1c1cccc(CCCCc2cccc(S(=O)(=O)F)c2)c1`, the T/C by setting is: under setting [22], 115 % of control; under setting [23], 96 % of control; under setting [14], 87 % of control.

Consider `CCCC(NC(=O)C(Cc1ccccc1)NC(=O)OCc1ccccc1)C(=O)O` (stereo not drawn) (Cbz-Phe-[Nva]-OH; configuration not given here), for which the T/C was 95 % of control under setting [15] and 92 % of control under setting [16].

As to `NC(=O)C1(N2CCCCC2)CCN(CCCC(=O)c2ccc(F)cc2)CC1`, the T/C reads like this: under setting [18], 108 % of control; under setting [19], 108 % of control; under setting [20], 113 % of control; under setting [21], 105 % of control; under setting [24], 105 % of control.

For `Cc1nc(N)[nH]c(=O)c1Br`, the T/C is 97 % of control (dose: 100.0 mg/kg/injection, schedule: Q04DX003 (ip), vehicle: Klucel (hydroxypropylcellulose) (HPC)); 93 % of control (dose: 200.0 mg/kg/injection, schedule: Q04DX003 (ip), vehicle: Klucel (hydroxypropylcellulose) (HPC)); 89 % of control (dose: 400.0 mg/kg/injection, schedule: Q04DX003 (ip), vehicle: Klucel (hydroxypropylcellulose) (HPC)).

Turning to `CC1(C)C(=O)NC(=O)C1(C)C`, the T/C by setting is: under setting [18], 92 % of control; under setting [19], 96 % of control; under setting [20], 95 % of control; under setting [21], 90 % of control.

As to `O=C1C(NCC(O)CO)=C(N2CC2)C(=O)C(NCC(O)CO)=C1N1CC1` (configuration not stated), the T/C is, setting by setting: under setting [1], 95 % of control; under setting [3], 121 % of control; under setting [5], 123 % of control.

With `CC1(C)N=C(N)N=C(N)N1c1ccc(Cl)c(Cl)c1`, the T/C is, setting by setting: (dose: 6.25 mg/kg/injection, schedule: Q01DX009 (ip), vehicle: Klucel (hydroxypropylcellulose) (HPC)) 117 % of control; (dose: 6.25 mg/kg/injection, schedule: Q04DX003 (ip), vehicle: Klucel (hydroxypropylcellulose) (HPC)) 102 % of control; (dose: 12.5 mg/kg/injection, schedule: Q04DX003 (ip), vehicle: Klucel (hydroxypropylcellulose) (HPC)) 103 % of control; (dose: 25.0 mg/kg/injection, schedule: Q04DX003 (ip), vehicle: Klucel (hydroxypropylcellulose) (HPC)) 114 % of control; (dose: 50.0 mg/kg/injection, schedule: Q04DX003 (ip), vehicle: Klucel (hydroxypropylcellulose) (HPC)) 116 % of control.

Turning to `c1ccc2c(c1)nnn1c3cnccc3nc21`, the T/C runs as follows: (dose: 1.56 mg/kg/injection, schedule: Q01DX009 (ip), vehicle: saline with Tween-80) 110 % of control; (dose: 3.12 mg/kg/injection, schedule: Q01DX009 (ip), vehicle: saline with Tween-80) 97 % of control and 111 % of control; under setting [22], 93 % of control and 107 % of control; under setting [23], 106 % of control and 121 % of control.

As to `C=C(C)C(=O)OCC1CO1` (configuration not stated), the T/C was 102 % of control under setting [8], 100 % of control under setting [9] and 109 % of control under setting [10].

For the compound `CC(C)NCC(=O)c1ccc(O)c(O)c1`, the T/C under setting [12] is 115 % of control; the T/C under setting [13] was 114 % of control; the T/C (dose: 20.0 mg/kg/injection, schedule: Q01DX009 (ip), vehicle: saline) is 116 % of control; the T/C (dose: 40.0 mg/kg/injection, schedule: Q01DX009 (ip), vehicle: saline) is 110 % of control; the T/C under setting [24] is 113 % of control; the T/C under setting [17] is 108 % of control. Also, the T/C reads like this: (dose: 200.0 mg/kg/injection, schedule: Q01DX009 (ip), vehicle: saline) 106 % of control; (dose: 200.0 mg/kg/injection, schedule: Q04DX003 (ip), vehicle: saline) 106 % of control; (dose: 400.0 mg/kg/injection, schedule: Q04DX003 (ip), vehicle: saline) 97 % of control.

As for `CC(CN1CCN(CCOCCO)CC1)CN1c2ccccc2Sc2ccccc21` (configuration not stated), the T/C by setting is: under setting [2], 108 % of control; under setting [4], 97 % of control; under setting [18], 102 % of control; under setting [20], 100 % of control and 101 % of control.

On to `Cc1ccc(S(=O)(=O)N/N=C/C(Br)=C(/Br)C(=O)O)cc1`, for which the T/C is 111 % of control under setting [6], 113 % of control under setting [7] and 122 % of control under setting [8].
